Reference: patent US11739074B2, “Ras inhibitors” (Revolution Medicines, Inc., priority 2019, dated 2023)
Read-outs that look alike come from different tables or passages of the source.

Legend:
Format in all cases: cell-based
[1] = system: AsPC-1 (K-Ras G12D); assay: Potency assay: pERK in AsPC-1 cells; settings: Homo sapiens
[2] = system: NCI-H358 (K-Ras G12C); assay: CellTiter-Glo cell viability assay, H358; settings: Homo sapiens, NCI-H358, 120 h
How it was run: (§1)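 Direct compound addition to plated cells; 5-day exposure; ~30 min RT equilibration; CellTiter-Glo luminescence. Normalization: (sample/avg DMSO)*100; 4-parameter logistic curve fit.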

[3] = system: AsPC-1 (K-Ras G12D); assay: CellTiter-Glo cell viability assay, AsPC-1; settings: Homo sapiens, ASPC1, 120 h
How it was run: as §1

[4] = ASPC1, read-out: pERK EC50 (AsPC-1 KRAS G12D)
[5] = read-out: H358 Cell Viability IC50, NCI-H358, K-Ras G12C, 5-day treatment
[6] = read-out: AsPC-1 Cell Viability IC50, AsPC-1, K-Ras G12D, 5-day treatment

## CCn1c(-c2cccnc2[C@H](C)OC)c2c3cc(ccc31)-c1cc(O)cc(c1)C[C@H](NC(=O)[C@H](C(C)C)N(C)C(=O)[C@@H]1CO[C@H](C)CN1C(=O)[C@@H]1CN1)C(=O)N1CCC[C@H](N1)C(=O)OCC(C)(C)C2 [Compound 249]
[1]; ASPC1, AsPC-1 cells, K-Ras G12D, read-out: pERK EC50 (AsPC-1 KRAS G12D)
  EC50: < 5000 nM
[2]; NCI-H358, K-Ras G12C, 5-day treatment, read-out: H358 Cell Viability IC50
  IC50: 10 to 100 nM
[3]; AsPC-1, K-Ras G12D, 5-day treatment, read-out: AsPC-1 Cell Viability IC50
  IC50: 10 to 100 nM

## CCn1c(-c2cccnc2[C@H](C)OC)c2c3cc(ccc31)-c1cc(O)cc(c1)C[C@H](NC(=O)[C@H](C(C)C)N(C)C(=O)CN(C)C(=O)[C@@]1(C)CN1)C(=O)N1CCC[C@H](N1)C(=O)OCC(C)(C)C2 [Compound 256]
[1]; [4]
  EC50: < 5000 nM
[2]; [5]
  IC50: 10 to 100 nM
[3]; [6]
  IC50: 100 to 1000 nM

## CCn1c(-c2cccnc2[C@H](C)OC)c2c3cc(ccc31)-c1cc(O)cc(c1)C[C@H](NC(=O)[C@H](C(C)C)N(C)C(=O)CN(C)C(=O)[C@]1(C)CN1)C(=O)N1CCC[C@H](N1)C(=O)OCC(C)(C)C2 [Compound 257]
[1]; [4]
  EC50: < 5000 nM
[2]; [5]
  IC50: 10 to 100 nM
[3]; [6]
  IC50: 100 to 1000 nM

## CCn1c(-c2cccnc2[C@H](C)OC)c2c3cc(ccc31)-c1cc(O)cc(c1)C[C@H](NC(=O)[C@H](C(C)C)N(C)C(=O)CN(C)C(=O)[C@@H]1N[C@@H]1C(F)(F)F)C(=O)N1CCC[C@H](N1)C(=O)OCC(C)(C)C2 [Compound 258]
[1]; [4]
  EC50: < 5000 nM
[2]; [5]
  IC50: 10 to 100 nM
[3]; [6]
  IC50: 100 to 1000 nM

## CCn1c(-c2cccnc2[C@H](C)OC)c2c3cc(ccc31)-c1cc(O)cc(c1)C[C@H](NC(=O)[C@H](C(C)C)N(C)C(=O)CN(C)C(=O)[C@H]1N[C@H]1C(F)(F)F)C(=O)N1CCC[C@H](N1)C(=O)OCC(C)(C)C2 [Compound 259]
[1]; [4]
  EC50: < 5000 nM
[2]; [5]
  IC50: 10 to 100 nM
[3]; [6]
  IC50: 100 to 1000 nM

## CCn1c(-c2cccnc2[C@H](C)OC)c2c3cc(ccc31)-c1cc(O)cc(c1)C[C@H](NC(=O)[C@H](C(C)C)N(C)C(=O)CN(C)C(=O)[C@@H]1N[C@H]1C(F)(F)F)C(=O)N1CCC[C@H](N1)C(=O)OCC(C)(C)C2 [Compound 260]
[1]; [4]
  EC50: < 5000 nM
[2]; [5]
  IC50: 10 to 100 nM
[3]; [6]
  IC50: 100 to 1000 nM

## CCn1c(-c2cccnc2[C@H](C)OC)c2c3cc(ccc31)-c1cc(O)cc(c1)C[C@H](NC(=O)[C@H](C(C)C)N(C)C(=O)CN(C)C(=O)[C@H]1N[C@@H]1C(F)(F)F)C(=O)N1CCC[C@H](N1)C(=O)OCC(C)(C)C2 [Compound 261]
[1]; [4]
  EC50: < 5000 nM
[2]; [5]
  IC50: < 10 nM
[3]; [6]
  IC50: 100 to 1000 nM

## CC[C@H]1N[C@H]1C(=O)N(C)CC(=O)N(C)[C@H](C(=O)N[C@H]1Cc2cc(O)cc(c2)-c2ccc3c(c2)c(c(-c2cccnc2[C@H](C)OC)n3CC)CC(C)(C)COC(=O)[C@@H]2CCCN(N2)C1=O)C(C)C [Compound 262]
[1]; [4]
  EC50: < 5000 nM
[2]; [5]
  IC50: 10 to 100 nM
[3]; [6]
  IC50: 100 to 1000 nM

## CC[C@@H]1N[C@@H]1C(=O)N(C)CC(=O)N(C)[C@H](C(=O)N[C@H]1Cc2cc(O)cc(c2)-c2ccc3c(c2)c(c(-c2cccnc2[C@H](C)OC)n3CC)CC(C)(C)COC(=O)[C@@H]2CCCN(N2)C1=O)C(C)C [Compound 263]
[1]; [4]
  EC50: < 5000 nM
[2]; [5]
  IC50: 10 to 100 nM
[3]; [6]
  IC50: 100 to 1000 nM

## CCn1c(-c2cccnc2[C@H](C)OC)c2c3cc(ccc31)-c1cc(O)cc(c1)C[C@H](NC(=O)[C@H](C(C)C)N(C)C(=O)CN(C)C(=O)[C@@H]1N[C@@H]1C(C)C)C(=O)N1CCC[C@H](N1)C(=O)OCC(C)(C)C2 [Compound 264]
[1]; [4]
  EC50: < 5000 nM
[2]; [5]
  IC50: 10 to 100 nM
[3]; [6]
  IC50: 100 to 1000 nM

## CCn1c(-c2cccnc2[C@H](C)OC)c2c3cc(ccc31)-c1cc(O)cc(c1)C[C@H](NC(=O)[C@H](C(C)C)N(C)C(=O)CN(C)C(=O)[C@H]1N[C@H]1C(C)C)C(=O)N1CCC[C@H](N1)C(=O)OCC(C)(C)C2 [Compound 265]
[1]; [4]
  EC50: < 5000 nM
[2]; [5]
  IC50: 10 to 100 nM
[3]; [6]
  IC50: 100 to 1000 nM

## CCn1c(-c2cccnc2[C@H](C)OC)c2c3cc(ccc31)-c1cc(O)cc(c1)C[C@H](NC(=O)[C@H](C(C)C)N(C)C(=O)CN(C)C(=O)[C@H]1CN1CCCOC(C)=O)C(=O)N1CCC[C@H](N1)C(=O)OCC(C)(C)C2 (stereo partly drawn) [Compound 266]
[1]; [4]
  EC50: < 5000 nM
[2]; [5]
  IC50: < 10 nM
[3]; [6]
  IC50: 100 to 1000 nM

## CCn1c(-c2cccnc2[C@H](C)OC)c2c3cc(ccc31)-c1cc(O)cc(c1)C[C@H](NC(=O)[C@H](C(C)C)N(C)C(=O)CN(C)C(=O)[C@H]1CN1CC(=O)N(C)C)C(=O)N1CCC[C@H](N1)C(=O)OCC(C)(C)C2 (stereo partly drawn) [Compound 270]
[1]; [4]
  EC50: < 5000 nM
[2]; [5]
  IC50: 10 to 100 nM
[3]; [6]
  IC50: 100 to 1000 nM

## CCn1c(-c2cccnc2[C@H](C)OC)c2c3cc(ccc31)-c1cc(O)cc(c1)C[C@H](NC(=O)[C@H](C(C)C)N(C)C(=O)CN(C)C(=O)[C@H]1CN1CCCC#N)C(=O)N1CCC[C@H](N1)C(=O)OCC(C)(C)C2 (stereo partly drawn) [Compound 273]
[1]; [4]
  EC50: < 5000 nM
[2]; [5]
  IC50: < 10 nM
[3]; [6]
  IC50: 100 to 1000 nM
